Assay results reported in patent US8415469B2, “Compounds and methods for kinase modulation, and indications therefor” (Plexxikon Inc., priority 2005, dated 2013).

Assays:
Type in all cases: biochemical
[1] = molecular target: T1, Kdr (Homo sapiens, UniProt P35968); experiment: Z'-Lyte FRET kinase assay (Invitrogen), Kdr; conditions: read-out: IC50, activity toward kinase Kdr
T1 construct: purchased Invitrogen (assay run by Invitrogen)

[2] = molecular target: T2, Btk (Homo sapiens, UniProt Q06187); experiment: Z'-Lyte FRET kinase assay (Invitrogen), Btk; conditions: read-out: IC50, activity toward kinase Btk
T2 construct: purchased Invitrogen (assay run by Invitrogen)
T2 sequence (Q06187 whole entry): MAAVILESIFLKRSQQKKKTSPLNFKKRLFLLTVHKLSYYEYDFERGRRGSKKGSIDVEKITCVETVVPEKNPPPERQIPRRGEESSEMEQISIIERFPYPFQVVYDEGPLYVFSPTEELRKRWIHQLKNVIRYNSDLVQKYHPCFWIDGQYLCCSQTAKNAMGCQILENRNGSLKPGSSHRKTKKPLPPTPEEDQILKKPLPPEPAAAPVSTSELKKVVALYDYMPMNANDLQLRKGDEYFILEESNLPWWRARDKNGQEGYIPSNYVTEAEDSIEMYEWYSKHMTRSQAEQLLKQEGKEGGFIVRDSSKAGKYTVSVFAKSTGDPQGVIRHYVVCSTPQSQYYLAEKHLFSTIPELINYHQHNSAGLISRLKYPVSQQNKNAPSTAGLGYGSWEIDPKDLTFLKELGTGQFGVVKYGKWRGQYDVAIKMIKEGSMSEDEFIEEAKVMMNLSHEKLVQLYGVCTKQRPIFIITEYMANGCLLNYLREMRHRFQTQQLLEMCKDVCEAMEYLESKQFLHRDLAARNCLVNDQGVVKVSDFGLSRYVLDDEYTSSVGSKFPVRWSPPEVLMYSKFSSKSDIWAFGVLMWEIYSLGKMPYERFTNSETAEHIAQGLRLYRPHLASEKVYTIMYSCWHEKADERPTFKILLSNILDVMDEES
Text: For example, direct radiometric, indirect FRET or AlphaScreen assays may be used to assess the level of phosphorylation of a substrate in the presence of test compounds in order to determine the inhibitory affect of the compound on the kinase. […] For these assays, compounds of the invention were screened by Invitrogen using Z′-Lyte™ kinase assay.
Briefly, the Invitrogen kinase assay involves use of a specific peptide substrate optimized for each kinase, containing a fluorophore at each end that make up the FRET pair. The peptide sensitivity to proteolytic cleavage depends on phosphorylation of the peptide. Non-phosphorylated peptide is cleaved by a protease while peptide phosphorylated by the kinase is not cleaved. Cleavage of the peptide disrupts the FRET between the donor (coumarin) and acceptor (fluorescein) fluorophores, resulting in an increase in the ratio of donor emission to acceptor emission. The emission ratio of coumarin to fluorescein is used to assess the reaction progress. […] Thus, the assay involves a kinase reaction in the presence of varying concentrations of a given compound, a development reaction with site specific protease, and detection of the fluorescent emission ratio of coumarin and fluorscein. […] Reaction conditions for each kinase are determined to provide optimal reaction times, incubation temperature, kinase and ATP concentrations. Test samples are made up in 1× kinase buffer (50 mM HEPES pH 7.5, 50 mM MgCl2, 5 mM EGTA, 0.05% BRIJ-35) and compound at desired concentration prepared in DMSO such that the final DMSO is 1%. […] All kinase except for MAP2K1 were at 10 μM ATP in the kinase reaction, while MAP2K1 was at 100 μM. Samples are mixed and the kinase reaction is incubated 1 hour at room temperature, after which 5 μl of development solution is added and mixed. After incubation for another 1 hour at room temperature, 5 μl of stop reagent is added to each sample and mixed. The fluorescence signals are measured to determine the emission ratio.

[3] = molecular target: T3, EphB2 (Homo sapiens, UniProt P29323); experiment: Z'-Lyte FRET kinase assay (Invitrogen), EphB2; conditions: read-out: IC50, activity toward kinase EphB2
T3 construct: purchased Invitrogen (assay run by Invitrogen)
T3 sequence (P29323 19-1055): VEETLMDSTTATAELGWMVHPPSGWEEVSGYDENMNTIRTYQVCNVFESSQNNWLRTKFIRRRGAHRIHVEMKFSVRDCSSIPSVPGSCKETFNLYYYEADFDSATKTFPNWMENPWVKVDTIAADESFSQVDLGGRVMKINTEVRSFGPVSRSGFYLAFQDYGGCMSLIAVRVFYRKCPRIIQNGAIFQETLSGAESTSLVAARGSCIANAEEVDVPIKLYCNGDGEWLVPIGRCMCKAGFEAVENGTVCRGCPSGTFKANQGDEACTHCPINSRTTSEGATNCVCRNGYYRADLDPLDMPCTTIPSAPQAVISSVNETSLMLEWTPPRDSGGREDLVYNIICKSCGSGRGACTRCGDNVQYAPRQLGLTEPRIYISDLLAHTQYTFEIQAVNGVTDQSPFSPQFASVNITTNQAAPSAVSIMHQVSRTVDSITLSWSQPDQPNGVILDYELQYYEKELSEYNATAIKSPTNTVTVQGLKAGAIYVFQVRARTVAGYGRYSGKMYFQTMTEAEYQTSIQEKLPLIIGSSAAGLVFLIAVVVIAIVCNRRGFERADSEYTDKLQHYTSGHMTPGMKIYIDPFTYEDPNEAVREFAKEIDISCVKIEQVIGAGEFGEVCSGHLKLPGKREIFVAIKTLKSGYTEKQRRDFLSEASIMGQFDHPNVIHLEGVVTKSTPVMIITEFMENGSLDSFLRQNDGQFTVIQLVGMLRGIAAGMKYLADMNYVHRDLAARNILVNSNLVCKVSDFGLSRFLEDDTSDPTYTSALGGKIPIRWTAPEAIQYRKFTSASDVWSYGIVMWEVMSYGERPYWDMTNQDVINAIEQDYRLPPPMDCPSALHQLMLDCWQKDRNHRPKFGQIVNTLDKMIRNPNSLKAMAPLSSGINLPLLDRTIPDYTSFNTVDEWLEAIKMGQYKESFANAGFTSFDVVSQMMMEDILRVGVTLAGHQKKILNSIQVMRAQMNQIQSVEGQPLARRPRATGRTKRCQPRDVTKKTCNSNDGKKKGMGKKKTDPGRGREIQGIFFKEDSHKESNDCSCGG
Text: The effect of potential modulators of kinase activity can be measured in a variety of different assays known in the art. For example, direct radiometric, indirect FRET or AlphaScreen assays may be used to assess the level of phosphorylation of a substrate in the presence of test compounds in order to determine the inhibitory affect of the compound on the kinase. Invitrogen (Carlsbad, Calif.) uses a FRET based assay for Btk, EGFR, EphB2, Flt3, lrak4, Kdr, MAP2K1, MAPKAPK2, PDGFRB, PKC theta, Stk6 and Yes. For these assays, compounds of the invention were screened by Invitrogen using Z′-Lyte™ kinase assay.
Briefly, the Invitrogen kinase assay involves use of a specific peptide substrate optimized for each kinase, containing a fluorophore at each end that make up the FRET pair. The peptide sensitivity to proteolytic cleavage depends on phosphorylation of the peptide. Non-phosphorylated peptide is cleaved by a protease while peptide phosphorylated by the kinase is not cleaved. Cleavage of the peptide disrupts the FRET between the donor (coumarin) and acceptor (fluorescein) fluorophores, resulting in an increase in the ratio of donor emission to acceptor emission. The emission ratio of coumarin to fluorescein is used to assess the reaction progress. The extent of phosphorylation is determined from the emission ratio, which is low when the kinase is active (phosphorylated peptide is not cleaved, FRET pair connected) or higher for inhibited kinase (non-phosphorylated peptide is cleaved, FRET pair separated). Thus, the assay involves a kinase reaction in the presence of varying concentrations of a given compound, a development reaction with site specific protease, and detection of the fluorescent emission ratio of coumarin and fluorscein. […] Reaction conditions for each kinase are determined to provide optimal reaction times, incubation temperature, kinase and ATP concentrations. Test samples are made up in 1× kinase buffer (50 mM HEPES pH 7.5, 50 mM MgCl2, 5 mM EGTA, 0.05% BRIJ-35) and compound at desired concentration prepared in DMSO such that the final DMSO is 1%. […] Typically, assay plates are prepared to 10 μl final volume per sample, adding 2.5 μl of compound at 4× the desired concentration in 4% DMSO (serial dilution of compound provides concentration curve), 5 μl of the desired kinase mixed with Z′-LYTE™ peptide substrate (2× in 2× kinase buffer, final peptide at 2 μM), and 2.5 μl of 4×ATP solution. All kinase except for MAP2K1 were at 10 μM ATP in the kinase reaction, while MAP2K1 was at 100 μM. Samples are mixed and the kinase reaction is incubated 1 hour at room temperature, after which 5 μl of development solution is added and mixed. After incubation for another 1 hour at room temperature, 5 μl of stop reagent is added to each sample and mixed. The fluorescence signals are measured to determine the emission ratio.

[4] = molecular target: T4, Ret (Homo sapiens, UniProt P07949); experiment: AlphaScreen kinase assay, Ret; conditions: read-out: IC50, activity toward kinase Ret
T4 construct: P1378.pET-SF BI-PTP RET H661-R1012 HIS; made in house
T4 sequence (P07949 with tags, fused parts or gaps): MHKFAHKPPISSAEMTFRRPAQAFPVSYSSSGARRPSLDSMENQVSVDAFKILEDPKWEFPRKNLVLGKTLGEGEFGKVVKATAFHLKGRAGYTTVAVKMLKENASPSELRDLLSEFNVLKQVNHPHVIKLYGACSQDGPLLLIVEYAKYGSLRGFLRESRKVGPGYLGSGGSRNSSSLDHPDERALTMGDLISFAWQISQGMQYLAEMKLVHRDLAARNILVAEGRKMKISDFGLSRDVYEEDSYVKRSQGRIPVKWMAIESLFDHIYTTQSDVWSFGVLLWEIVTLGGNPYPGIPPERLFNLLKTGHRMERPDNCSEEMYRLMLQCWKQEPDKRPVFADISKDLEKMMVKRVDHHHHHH

[5] = molecular target: T5, Yes (Homo sapiens, UniProt P07947); experiment: Z'-Lyte FRET kinase assay (Invitrogen), Yes; conditions: read-out: IC50, activity toward kinase Yes
T5 construct: purchased Invitrogen (Carlsbad, Calif.), screening service
T5 sequence (P07947 whole entry): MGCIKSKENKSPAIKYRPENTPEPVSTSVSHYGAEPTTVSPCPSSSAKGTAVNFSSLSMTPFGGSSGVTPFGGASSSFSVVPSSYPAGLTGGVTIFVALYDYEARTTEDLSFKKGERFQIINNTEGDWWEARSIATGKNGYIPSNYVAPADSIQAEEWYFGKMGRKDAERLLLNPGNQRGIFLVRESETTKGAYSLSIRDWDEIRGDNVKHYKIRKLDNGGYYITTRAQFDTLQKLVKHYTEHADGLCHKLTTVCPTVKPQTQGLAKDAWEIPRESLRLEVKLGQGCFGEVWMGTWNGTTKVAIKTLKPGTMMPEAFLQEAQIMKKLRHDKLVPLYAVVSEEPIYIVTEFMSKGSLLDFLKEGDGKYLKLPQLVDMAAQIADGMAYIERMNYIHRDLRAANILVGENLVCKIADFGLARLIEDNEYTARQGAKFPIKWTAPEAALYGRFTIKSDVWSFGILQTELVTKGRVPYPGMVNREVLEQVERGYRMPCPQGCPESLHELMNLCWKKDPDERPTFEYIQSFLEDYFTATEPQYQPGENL
In short: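 Inhibition was inferred from protease cleavage of non-phosphorylated peptide, measured as a coumarin/fluorescein ratio. Kinase reactions used 10 μM ATP for 1 h at room temperature.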

[6] = molecular target: T6, B-Raf V600E (Homo sapiens, UniProt P15056, V600E); experiment: AlphaScreen kinase assay, B-Raf V600E; conditions: read-out: IC50, activity toward kinase B-Raf V600E
T6 construct: P4254. pFastBacBD-CDC37 BRAF D437-K722-X, V600E; His6 with pFastBac HT leader (TEV site) (N); made in house; host or cells: Sf9 (baculovirus; chaperone CDC37 co-expressed)
T6 sequence (P15056 with tags, fused parts or gaps V600E): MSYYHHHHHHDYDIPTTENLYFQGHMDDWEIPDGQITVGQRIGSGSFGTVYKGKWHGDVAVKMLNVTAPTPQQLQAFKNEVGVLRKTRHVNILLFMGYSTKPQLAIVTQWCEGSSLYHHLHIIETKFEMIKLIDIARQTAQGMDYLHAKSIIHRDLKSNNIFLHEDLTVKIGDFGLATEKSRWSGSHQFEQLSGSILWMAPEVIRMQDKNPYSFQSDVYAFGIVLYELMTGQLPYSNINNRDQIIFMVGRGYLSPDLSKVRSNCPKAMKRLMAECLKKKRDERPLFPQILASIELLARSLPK

[7] = molecular target: T7, Fms (Homo sapiens, UniProt P07333); experiment: AlphaScreen kinase assay, Fms; conditions: read-out: IC50, activity toward kinase Fms
T7 construct: purchased Upstate Biotechnology

[8] = molecular target: T8, Abl (Homo sapiens, UniProt P00519); experiment: AlphaScreen kinase assay, Abl; conditions: read-out: activity toward kinase Abl, IC50
T8 construct: P1121. pET-SPEC BI-PTP Abl G227-V515-X; His6 (N); made in house; host or cells: E. coli (PTP1B co-expressed)
T8 sequence (P00519 with tags, fused parts or gaps): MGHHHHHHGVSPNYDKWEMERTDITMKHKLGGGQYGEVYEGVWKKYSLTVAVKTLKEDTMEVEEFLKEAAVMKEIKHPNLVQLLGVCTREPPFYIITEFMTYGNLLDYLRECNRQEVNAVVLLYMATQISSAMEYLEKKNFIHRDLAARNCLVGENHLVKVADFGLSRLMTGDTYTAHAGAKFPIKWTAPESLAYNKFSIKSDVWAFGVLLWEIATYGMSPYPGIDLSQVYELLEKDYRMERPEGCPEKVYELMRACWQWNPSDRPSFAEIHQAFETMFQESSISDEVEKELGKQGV
In short: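 Kinase activity was measured as phosphorylation of a biotinylated peptide, detected with streptavidin donor and phospho-antibody acceptor beads. Compounds, from 20 mM DMSO stocks, were tested at eight concentrations in 1:3 serial dilution.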

[9] = molecular target: T9, FGFR1 (Homo sapiens, UniProt P11362, C488A/C584S); experiment: AlphaScreen kinase assay, FGFR1; conditions: read-out: IC50, activity toward kinase FGFR
T9 construct: P1351.pET N6 BI-PTP FGFR A458-E765-X C488A, C584S; made in house; host or cells: E. coli (PTP1B co-expressed)
T9 sequence (P11362 458-765 C488A/C584S): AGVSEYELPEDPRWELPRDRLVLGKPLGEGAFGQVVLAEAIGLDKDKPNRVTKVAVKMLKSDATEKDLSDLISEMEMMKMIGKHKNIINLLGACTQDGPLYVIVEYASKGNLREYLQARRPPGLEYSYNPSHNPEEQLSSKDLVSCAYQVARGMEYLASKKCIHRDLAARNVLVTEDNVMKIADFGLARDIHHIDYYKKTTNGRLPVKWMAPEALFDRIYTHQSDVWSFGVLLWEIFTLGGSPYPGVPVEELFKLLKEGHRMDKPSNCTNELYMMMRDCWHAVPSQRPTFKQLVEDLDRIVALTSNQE

[10] = molecular target: T10, Stk6 (Homo sapiens, UniProt O14965); experiment: Z'-Lyte FRET kinase assay (Invitrogen), Stk6; conditions: read-out: IC50, activity toward kinase Stk6
T10 construct: purchased Invitrogen (Carlsbad, Calif.), screening service
T10 sequence (O14965 1-403): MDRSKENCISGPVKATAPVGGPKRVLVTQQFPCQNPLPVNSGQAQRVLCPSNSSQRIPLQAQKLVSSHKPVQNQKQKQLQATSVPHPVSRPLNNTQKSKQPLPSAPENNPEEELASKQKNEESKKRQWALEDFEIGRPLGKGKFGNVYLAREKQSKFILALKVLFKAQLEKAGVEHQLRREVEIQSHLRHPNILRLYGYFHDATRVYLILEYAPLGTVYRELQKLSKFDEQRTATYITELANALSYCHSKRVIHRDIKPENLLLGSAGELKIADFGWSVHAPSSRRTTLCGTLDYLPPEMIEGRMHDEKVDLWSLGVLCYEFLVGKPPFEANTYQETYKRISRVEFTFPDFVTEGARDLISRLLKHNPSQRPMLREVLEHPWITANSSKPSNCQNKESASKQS

[11] = molecular target: T11, B-Raf (Homo sapiens, UniProt P15056); experiment: AlphaScreen kinase assay, B-Raf; conditions: read-out: IC50, activity toward kinase B-Raf
T11 construct: purchased Upstate Biotechnology
T11 sequence (P15056 whole entry): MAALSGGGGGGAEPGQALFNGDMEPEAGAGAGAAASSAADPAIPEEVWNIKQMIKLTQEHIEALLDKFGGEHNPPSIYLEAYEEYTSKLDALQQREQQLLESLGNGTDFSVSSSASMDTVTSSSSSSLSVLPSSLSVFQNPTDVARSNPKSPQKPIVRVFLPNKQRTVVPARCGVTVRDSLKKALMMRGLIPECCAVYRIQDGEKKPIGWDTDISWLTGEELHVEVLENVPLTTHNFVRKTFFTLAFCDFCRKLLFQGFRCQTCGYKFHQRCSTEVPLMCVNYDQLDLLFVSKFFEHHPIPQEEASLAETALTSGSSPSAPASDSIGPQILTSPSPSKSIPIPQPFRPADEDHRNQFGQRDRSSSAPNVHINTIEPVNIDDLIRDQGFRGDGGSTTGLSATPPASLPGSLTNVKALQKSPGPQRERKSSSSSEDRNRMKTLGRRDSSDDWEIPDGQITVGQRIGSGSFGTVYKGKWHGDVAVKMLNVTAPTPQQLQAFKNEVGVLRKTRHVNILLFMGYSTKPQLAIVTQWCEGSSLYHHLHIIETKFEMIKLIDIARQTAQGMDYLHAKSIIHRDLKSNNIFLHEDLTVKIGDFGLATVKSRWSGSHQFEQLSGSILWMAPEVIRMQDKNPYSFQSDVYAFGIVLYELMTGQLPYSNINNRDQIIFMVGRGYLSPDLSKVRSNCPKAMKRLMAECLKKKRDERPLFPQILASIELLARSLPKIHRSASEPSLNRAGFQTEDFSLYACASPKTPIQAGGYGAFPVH

[12] = molecular target: T12, Kit (Homo sapiens, UniProt P10721); experiment: AlphaScreen kinase assay, Kit; conditions: read-out: IC50, activity toward kinase Kit
T12 construct: P1332.N6 BI PTP KIT M552-K948-X COD; His6 (N); made in house; host or cells: E. coli (PTP1B co-expressed)
T12 sequence (P10721 with tags, fused parts or gaps): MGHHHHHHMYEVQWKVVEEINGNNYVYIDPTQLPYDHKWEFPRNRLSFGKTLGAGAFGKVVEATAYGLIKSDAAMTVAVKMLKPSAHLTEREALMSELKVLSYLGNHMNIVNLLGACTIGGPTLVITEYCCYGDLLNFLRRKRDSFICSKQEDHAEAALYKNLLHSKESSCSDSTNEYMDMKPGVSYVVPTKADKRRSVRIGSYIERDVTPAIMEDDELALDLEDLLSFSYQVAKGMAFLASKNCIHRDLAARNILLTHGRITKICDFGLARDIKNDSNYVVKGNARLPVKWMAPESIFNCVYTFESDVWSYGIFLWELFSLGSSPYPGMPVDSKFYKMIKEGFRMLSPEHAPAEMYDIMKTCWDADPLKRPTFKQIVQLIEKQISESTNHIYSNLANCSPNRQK

[13] = molecular target: T13, Jnk3 (Homo sapiens, UniProt P53779); experiment: AlphaScreen kinase assay, Jnk3; conditions: read-out: IC50, activity toward kinase Jnk3
T13 construct: purchased Upstate Biotechnology
T13 sequence (P53779 whole entry): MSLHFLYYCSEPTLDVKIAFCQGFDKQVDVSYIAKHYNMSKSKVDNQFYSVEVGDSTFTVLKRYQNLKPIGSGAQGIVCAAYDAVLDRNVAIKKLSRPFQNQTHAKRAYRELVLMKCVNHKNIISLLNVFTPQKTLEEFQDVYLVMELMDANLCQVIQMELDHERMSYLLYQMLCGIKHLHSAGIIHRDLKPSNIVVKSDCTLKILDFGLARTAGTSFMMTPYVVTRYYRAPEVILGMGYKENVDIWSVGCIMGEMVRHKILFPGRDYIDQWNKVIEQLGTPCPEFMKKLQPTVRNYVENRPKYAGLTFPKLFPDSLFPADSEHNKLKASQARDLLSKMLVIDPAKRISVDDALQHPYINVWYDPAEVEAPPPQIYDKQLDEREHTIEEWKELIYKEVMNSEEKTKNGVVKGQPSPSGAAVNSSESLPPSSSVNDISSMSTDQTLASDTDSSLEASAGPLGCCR

Measured: IC50

T1 sequence (P35968 20-1356): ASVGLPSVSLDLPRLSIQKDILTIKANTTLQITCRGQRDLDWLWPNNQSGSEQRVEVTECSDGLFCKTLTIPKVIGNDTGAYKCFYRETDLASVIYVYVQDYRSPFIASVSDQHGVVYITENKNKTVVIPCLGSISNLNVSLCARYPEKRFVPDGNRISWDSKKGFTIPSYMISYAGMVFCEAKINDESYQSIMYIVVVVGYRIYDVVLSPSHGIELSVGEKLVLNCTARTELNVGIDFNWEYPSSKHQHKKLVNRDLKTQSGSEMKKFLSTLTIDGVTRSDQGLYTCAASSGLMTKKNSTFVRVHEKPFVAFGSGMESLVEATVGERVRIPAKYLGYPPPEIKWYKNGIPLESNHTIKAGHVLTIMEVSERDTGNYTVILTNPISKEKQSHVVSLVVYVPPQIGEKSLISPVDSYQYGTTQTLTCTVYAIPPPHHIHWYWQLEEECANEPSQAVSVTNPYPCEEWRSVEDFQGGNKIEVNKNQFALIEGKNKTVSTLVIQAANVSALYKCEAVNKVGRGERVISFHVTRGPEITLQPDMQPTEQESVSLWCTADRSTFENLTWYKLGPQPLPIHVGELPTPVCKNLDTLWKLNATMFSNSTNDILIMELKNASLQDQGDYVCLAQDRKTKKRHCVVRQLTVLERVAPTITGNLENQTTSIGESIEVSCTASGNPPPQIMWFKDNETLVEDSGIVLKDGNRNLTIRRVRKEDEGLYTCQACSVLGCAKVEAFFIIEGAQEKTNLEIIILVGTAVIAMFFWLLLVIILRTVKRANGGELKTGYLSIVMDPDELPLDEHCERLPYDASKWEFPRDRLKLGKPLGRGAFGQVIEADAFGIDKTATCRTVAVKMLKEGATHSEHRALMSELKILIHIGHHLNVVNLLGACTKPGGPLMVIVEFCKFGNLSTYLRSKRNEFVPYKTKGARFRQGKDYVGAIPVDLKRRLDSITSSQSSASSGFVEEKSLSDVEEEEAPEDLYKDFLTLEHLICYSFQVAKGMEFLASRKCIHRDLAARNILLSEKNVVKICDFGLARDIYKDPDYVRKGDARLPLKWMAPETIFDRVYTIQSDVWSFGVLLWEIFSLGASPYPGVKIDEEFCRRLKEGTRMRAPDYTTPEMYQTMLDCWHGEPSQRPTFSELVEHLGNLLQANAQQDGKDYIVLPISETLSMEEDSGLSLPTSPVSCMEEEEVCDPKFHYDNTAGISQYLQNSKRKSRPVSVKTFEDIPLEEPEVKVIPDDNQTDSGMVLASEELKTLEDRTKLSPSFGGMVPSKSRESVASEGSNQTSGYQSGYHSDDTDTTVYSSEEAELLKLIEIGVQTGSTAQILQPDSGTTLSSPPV

NC(=O)c1cccc(-c2ccnc3[nH]cc(C(=O)c4cccc(Cl)c4Cl)c23)c1 [Compound P-0139]
≤ 10 µM: [1] | [2] | [3] | [4] | [5] | [6]

CC(=O)Nc1cccc(-c2ccnc3[nH]cc(C(=O)c4cccc(Cl)c4Cl)c23)c1 [Compound P-0186]
≤ 10 µM: [3] | [4] | [6]

COc1cccc(Sc2c[nH]c3ncc(Br)cc23)c1 [Compound P-0145]
≤ 10 µM: [1] | [2] | [7] | [3] | [5]

O=C(c1cccc(O)c1)c1c[nH]c2ncc(-c3cc(F)cc(F)c3)cc12 [Compound P-0074]
≤ 10 µM: [1] | [2] | [3] | [5] | [6] | [8]

Brc1cnc2[nH]cc(Sc3ccccc3)c2c1 [Compound P-0125]
≤ 10 µM: [1] | [2] | [3] | [5]

O=C(c1ccccc1F)c1c[nH]c2nccc(-c3cccnc3)c12 [Compound P-0062]
≤ 10 µM: [3] | [5] | [6]

O=C(c1cccc(Cl)c1Cl)c1c[nH]c2nccc(-c3cccnc3)c12 [Compound P-0043]
not listed: [7] | [8] | [11] | [12] | [13]
≤ 10 µM: all other assays above

COc1ccc(-c2ccnc3[nH]cc(C(=O)c4cccc(Cl)c4Cl)c23)cn1 [Compound P-0107]
≤ 10 µM: [1] | [2] | [3] | [4] | [5] | [6]

CCc1cnc2[nH]cc(C(=O)c3cccc(O)c3)c2c1 [Compound P-0059]
not listed: [7] | [8] | [10]
≤ 10 µM: all other assays above

COC(c1c(F)ccc(O)c1F)c1c[nH]c2ncc(Br)cc12 (centres unmarked) [Compound P-0126, 3-[(5-Bromo-1H-pyrrolo[2,3-b]pyridin-3-yl)-methoxy-methyl]-2,4-difluoro-phenol]
≤ 10 µM: [1] | [3] | [11] | [5] | [6]
